Measurements taken from US12630505B2, “Alkyne compound, vitamin D compound, analytical method, and production method” (Tokyo University of Agriculture and Technology, priority 2021, dated 2026).

Experiments:
[1] = system: Antibody column: 1,25-(OH)2-vitamin D3/D2 Immuno Tube Extraction Kit; assay: Antibody column fractionation of pooled serum, LC-MS/MS of adsorbed and non-adsorbed fractions; assay type: binding; conditions: SRM chromatograms FIG. 5B/5C
Description: (4) Sample Pretreatment • (4-1) In a microtube, 200 μL of a calibrator or a pooled serum, 180 μL of IS, and 20 μL of additives were placed, and the whole was stirred to prepare a sample. To the calibrator, 10 μL of an aqueous 1α,25-(OH)2D3 solution (1 ng/mL) and 10 μL of an aqueous 1α,25-(OH)2D3-^13C3 solution (1 ng/mL) were added as the additives. To the pooled serum, 10 μL of an aqueous 1α,25-(OH)2D3-^13C3 solution (1 ng/mL) and 10 μL of water were added. • (4-2) The sample was loaded on an antibody column, and the column sealed with a cap was gently shaken. • (4-3) The sample was rotated and mixed at room temperature for 1 hour with a rotator to be subjected to antigen-antibody reaction. • (4-4) The outlet of the antibody column was released, and the column was centrifuged at 550 g for 2 minutes to collect a non-adsorbed fraction. • (4-5) Into the column, 500 μL of WASHSOL supplied with the antibody column kit was added, and the column was centrifuged at 550 g for 2 minutes. […]

[2] = system: Antibody column: 1,25-(OH)2-vitamin D3/D2 Immuno Tube Extraction Kit; assay: Separation measurement of 4β,25-(OH)2D3: antibody column fractionation of spiked vitamin D free serum, LC-MS/MS of fractions; assay type: binding; conditions: vitamin D free serum with 4β,25-(OH)2D3 at 50 pg/mL; SRM chromatograms FIG. 4A/4B
Description: • Standard: 4β,25-(OH)2D3 (vitamin D compound 54 produced in Example 1) • Stable isotope-labeled compound: 4β,25-(OH)2D3-d4 (vitamin D compound 52 produced in Example 1) • Vitamin D free serum: MSG1000 (Golden West Biologicals) • Antibody column: 1,25-(OH)2-vitamin D3/D2 Immuno Tube (trademark) Extraction Kit (Immunodiagnostik) • SLE column: Isolute SLE+ column (Biotage) • Derivatization reagent (DAP-PA): JeoQuant Kit for LC-MS/MS Analysis of Vitamin D Metabolites (JEOL) (2) IS (Internal Standard) Solution
An aqueous 4β,25-(OH)2D3-d4 solution was prepared at the concentration shown below.
(3) Sample Pretreatment • (3-1) In a microtube, 200 μL of a vitamin D free serum prepared to have a 4β,25-(OH)2D3 concentration of 50 pg/mL and 30 μL of IS were placed to prepare a sample. • (3-2) The sample was loaded on an antibody column, and the column sealed with a cap was gently shaken. • (3-3) The sample was rotated and mixed at room temperature for 1 hour with a rotator to be subjected to antigen-antibody reaction. • (3-4) The outlet of the antibody column was released, and the column was centrifuged at 550 g for 2 minutes to collect a non-adsorbed fraction. • (3-5) Into the column, 500 μL of WASHSOL supplied with the antibody column kit was added, and the column was centrifuged at 550 g for 2 minutes. […]

Row | SMILES | Fraction of the antibody column in which the compound was collected [1] | Fraction of the antibody column that contains the compound [2]
1 | C=C1/C(=C\C=C2/CCC[C@]3(C)[C@@H]([C@H](C)CCCC(C)(C)O)CC[C@@H]23)C[C@@H](O)C[C@@H]1O [1α,25(OH)2D3, 1α,25-dihydroxyvitamin D3] | collected in the adsorbed fraction | 
2 | C=C1CC[C@H](O)[C@H](O)/C1=C/C=C1\CCC[C@]2(C)[C@@H]([C@H](C)CCCC(C)(C)O)CC[C@@H]12 [4β,25-(OH)2D3, 4β,25-dihydroxyvitamin D3] | collected in the non-adsorbed fraction | only in the non-adsorbed fraction
